For test [1], the target named is T1, mouse TREX1 (Mus musculus, UniProt Q91XB0).
T1 construct: N-terminally His-Tev tagged full length mouse TREX1; made in house; host or cells: E. coli
T1 sequence (Q91XB0 1-314): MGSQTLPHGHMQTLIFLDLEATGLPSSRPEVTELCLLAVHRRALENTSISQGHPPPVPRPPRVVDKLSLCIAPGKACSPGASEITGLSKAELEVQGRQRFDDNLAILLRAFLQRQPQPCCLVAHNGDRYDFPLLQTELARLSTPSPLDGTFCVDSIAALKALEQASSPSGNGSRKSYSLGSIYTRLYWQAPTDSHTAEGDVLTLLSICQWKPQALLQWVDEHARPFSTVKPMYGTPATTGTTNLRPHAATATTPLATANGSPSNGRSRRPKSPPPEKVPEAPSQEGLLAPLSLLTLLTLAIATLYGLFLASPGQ
Kind of test: mTREX1 Biochemical Assay (fluorescence, dsDNA substrate degradation). As to conditions: full length mouse TREX1, 4 h pre-incubation, 18 h reaction at 25° C. The procedure, abridged:
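Full-length His-Tev mouse TREX1 (E. coli) was preincubated with compound 4 h at 25 °C, then run 18 h at 25 °C. Finals were 6 pM enzyme, 60 nM TEX615/quencher dsDNA, 1% DMSO, pH 7.4 Tris with 5 mM MgCl2. After EDTA quench, fluorescence was read at 615 nm; IC50 by four-parameter fit against EDTA and no-inhibitor controls.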

For test [2], the target named is T2, human TREX2 (Homo sapiens, UniProt Q9BQ50).
T2 construct: human TREX2 (residues M44-A279, expressed in E. coli); made in house; host or cells: E. coli
T2 sequence (Q9BQ50 44-279 isoform Q9BQ50-1): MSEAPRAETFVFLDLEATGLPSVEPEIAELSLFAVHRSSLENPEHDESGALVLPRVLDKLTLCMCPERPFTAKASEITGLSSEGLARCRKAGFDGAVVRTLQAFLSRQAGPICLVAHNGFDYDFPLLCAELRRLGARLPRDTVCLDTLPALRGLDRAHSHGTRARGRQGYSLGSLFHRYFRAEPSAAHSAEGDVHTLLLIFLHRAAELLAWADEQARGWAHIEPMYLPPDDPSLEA
Kind of test: hTREX2 Biochemical Assay (selectivity hTREX1 vs hTREX2). The note with it: biochemical selectivity for hTREX1 vs hTREX2. The procedure, abridged: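 His-Tev-tagged human TREX2 (M44-A279, E. coli-expressed) preincubated with compound (10-point dose-response) for 4 h at 25 °C in Tris pH 7.4 buffer with 5 mM MgCl2. Reaction then run with 60 nM TEX615/quencher dsDNA and 50 pM enzyme (1% DMSO) for 18 h at 25 °C and EDTA-quenched. Fluorescence read at 615 nm (ex 570 nm); IC50 by four-parameter fit against pre-quenched and no-inhibitor controls.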

By IC50 is commonly meant the concentration that inhibits the measured activity by half.

Where only a bound is given, the exact number is not on record here.

As to `CC(c1nc(C(=O)Nc2cnoc2)c(O)c(=O)n1C)C(c1ccccc1)c1ccccc1` (single isomer, unassigned) [Example 1 Isomer 1, 2-(1,1-diphenylpropan-2-yl)-5-hydroxy-N-(isoxazol-4-yl)-1-methyl-6-oxo-1,6-dihydro pyrimidine-4-carboxamide], in test [1], the 50% inhibitory concentration (IC50) was above 10 nM. The “hTREX1 vs hTREX2 selectivity” value in test [2] was “A (A = <25 fold selective for hTREX1)”.
Taken in the same sequence, the figures for `CC(c1nc(C(=O)Nc2cnoc2)c(O)c(=O)n1C)C(c1ccccc1)c1ccccc1` (single isomer, unassigned) [Example 1 Isomer 2, 2-(1,1-diphenylpropan-2-yl)-5-hydroxy-N-(isoxazol-4-yl)-1-methyl-6-oxo-1,6-dihydro pyrimidine-4-carboxamide] were above 10 nM and “A (A = <25 fold selective for hTREX1)”.
Taken in the same sequence, the figures for `C[C@H](c1nc(C(=O)Nc2cnoc2)c(O)c(=O)n1C)[C@H](c1ccccc1)c1ccccc1Cl` (single isomer, unassigned) [Example 2 Isomer 3, 2-(1-(2-chlorophenyl)-1-phenylpropan-2-yl)-5-hydroxy-N-(isoxazol-4-yl)-1-methyl-6-oxo-1,6-dihydropyrimidine-4-carboxamide] were 1 to 10 nM and “B (B = 25 to 50 fold selective for hTREX1)”.
As for `CC(c1nc(C(=O)Nc2cnoc2)c(O)c(=O)n1C)C(c1ccccc1)c1ccccc1C#N` (single isomer, unassigned) [Example 3 Isomer 4], the 50% inhibitory concentration (IC50) in test [1] fell in the range of 1 to 10 nM. Moreover, the “hTREX1 vs hTREX2 selectivity” value in test [2] was “B (B = 25 to 50 fold selective for hTREX1)”.
Taken in the same sequence, the figures for `CC(c1nc(C(=O)Nc2cnoc2)c(O)c(=O)n1C)C(c1ccccc1C#N)c1ccccc1C#N` (single isomer, unassigned) [Example 4 Isomer 2] were below 1 nM and “C (C = >50 fold selective for hTREX1)”.
In turn, `CC(c1nc(C(=O)Nc2cnoc2)c(O)c(=O)n1C)C(c1ccccc1)c1cc(F)ccc1C#N` (single isomer, unassigned) [Example 6 Isomer 4] registered an IC50 in test [1] of 1 to 10 nM. Further, in test [2], the “hTREX1 vs hTREX2 selectivity” value was “B (B = 25 to 50 fold selective for hTREX1)”.
The corresponding values for `CC(c1nc(C(=O)Nc2cnoc2)c(O)c(=O)n1C)C(c1ccccc1)c1cc(Cl)ccc1C#N` (single isomer, unassigned) [Example 8 Isomer 2] are 1 to 10 nM and “C (C = >50 fold selective for hTREX1)”.
Consider `CC(c1nc(C(=O)Nc2cnoc2)c(O)c(=O)n1C)C(c1ccccc1)c1ccc(Cl)cc1C#N` (single isomer, unassigned) [Example 9 Isomer 4], for which the IC50 in test [1] was below 1 nM. Moreover, in test [2], the “hTREX1 vs hTREX2 selectivity” value is listed as “B (B = 25 to 50 fold selective for hTREX1)”.
Consider `CC(c1nc(C(=O)Nc2cnoc2)c(O)c(=O)n1C)C(c1ccccc1Cl)c1ccccc1C#N` (single isomer, unassigned) [Example 10 Isomer 1], for which the IC50 in test [1] is below 1 nM. The “hTREX1 vs hTREX2 selectivity” value in test [2] is “C (C = >50 fold selective for hTREX1)”.
Taken in the same sequence, the figures for `CC(c1nc(C(=O)Nc2cnoc2)c(O)c(=O)n1C)C(c1cc(F)cc(F)c1)c1ccccc1C#N` (single isomer, unassigned) [Example 11 Isomer 3] were below 1 nM and “B (B = 25 to 50 fold selective for hTREX1)”.
The corresponding values for `C[C@H](c1nc(C(=O)Nc2cnoc2)c(O)c(=O)n1C)[C@H](c1ccccc1)c1ccccc1C(F)(F)F` (single isomer, unassigned) [Example 14 Isomer 2, 5-Hydroxy-N-(isoxazol-4-yl)-1-methyl-6-oxo-2-(1-phenyl-1-(2-(trifluoromethyl)phenyl)propan-2-yl)-1,6-dihydropyrimidine-4-carboxamide] are above 10 nM and “C (C = >50 fold selective for hTREX1)”.
Taken in the same sequence, the figures for `C[C@H](c1nc(C(=O)Nc2cnoc2)c(O)c(=O)n1C)C(c1ccccc1Cl)c1ccccc1Cl` (single isomer, unassigned) [Example 15 Isomer 1, 2-(1,1-bis(2-chlorophenyl)propan-2-yl)-5-hydroxy-N-(isooxazol-4-yl)-1-methyl-6-oxo-1,6-dihydropyrimidine-4-carboxamide] were below 1 nM and “C (C = >50 fold selective for hTREX1)”.
`CC(c1nc(C(=O)Nc2cnoc2)c(O)c(=O)n1C)C(c1ccccc1)c1cc(C(=O)N(C)C)ccc1C#N` (single isomer, unassigned) [Example 17 Isomer 3] gave an IC50 in test [1] of 1 to 10 nM. Also, the “hTREX1 vs hTREX2 selectivity” value in test [2] is reported as “B (B = 25 to 50 fold selective for hTREX1)”.
With `Cn1c([C@H](C(c2ccccc2)c2ccccc2)C(F)(F)F)nc(C(=O)Nc2cnoc2)c(O)c1=O` (single isomer, unassigned) [Example 20 Isomer 1, 5-Hydroxy-N-(isoxazol-4-yl)-1-methyl-6-oxo-2-(1,1,1-trifluoro-3,3-diphenylpropan-2-yl)-1,6-dihydropyrimidine-4-carboxamide], the half-maximal inhibitory concentration (IC50) in test [1] is above 10 nM. The “hTREX1 vs hTREX2 selectivity” value in test [2] is “A (A = <25 fold selective for hTREX1)”.
In test [1], `Cn1c([C@@H](C(c2ccccc2C#N)c2ccccc2C#N)C(F)(F)F)nc(C(=O)Nc2cnoc2)c(O)c1=O` (single isomer, unassigned) [Example 21 Isomer 1, 2-(3,3-bis(2-cyanophenyl)-1,1,1-trifluoropropan-2-yl)-5-hydroxy-N-(isoxazol-4-yl)-1-methyl-6-oxo-1,6-dihydropyrimidine-4-carboxamide] had an IC50 of 1 to 10 nM. Besides, in test [2], the “hTREX1 vs hTREX2 selectivity” value was “C (C = >50 fold selective for hTREX1)”.

The record behind these values is US20240262814A1, “MODULATORS OF TREX1” (Constellation Pharmaceuticals, Inc., priority 2021, published 2024).
